{"source": "patent US9993424B2", "about": "“Intravaginal matrix drug delivery devices” (Allergan Pharmaceuticals International Limited, priority 2002, dated 2018)", "data": [{"assay": "Solubility in silicone oil at 25° C.", "conditions": "oil or lipid", "units": {"solubility": "µg/mL"}, "values": [{"molecule": "Nc1nc2c(ncn2COCCO)c(=O)[nH]1", "note": "[acyclovir]", "solubility": "< 80"}, {"molecule": "CC(C)N1CCN(c2ccc(OCC3COC(Cn4cncn4)(c4ccc(Cl)cc4Cl)O3)cc2)CC1", "note": "(stereo not shown) [terconazole]", "solubility": 200}, {"molecule": "C[C@]12CC[C@H]3[C@@H](CCC4=CC(=O)CC[C@@]43C)[C@@H]1CC[C@@H]2O", "note": "[testosterone]", "solubility": 140}, {"molecule": "Cc1ncc([N+](=O)[O-])n1CCO", "note": "[metronidazole]", "solubility": 6}]}]}
